Results on one compound are retold here after patent publication US8119808B2, “Tetrahydroquinoline derivatives as cannabinoid receptor modulators” (Bristol-Myers Squibb Company, priority 2003, dated 2012).

By melting point is commonly meant the temperature, or range, at which the solid turns liquid. In turn, `N#Cc1ccc2c(c1)C[C@H](NS(=O)(=O)c1ccccc1)CN2C(=O)c1ccccc1` returned a melting point of 174 to 175 °C.
